“Also recorded” adds a separate entry of the source.
Assays:
diabetic db/db mice [1] = assay: Oxidative stress and neuroinflammation (8dOHG, GFAP, Iba-1 expression) in diabetic db/db mice; assay type: in vivo; conditions: for expression of 8dOHG in HPF: db/db mice (FIG. 28A); for expression of 8dOHG in CTX: db/db mice (FIG. 28B); for expression of GFAP in HPF: db/db mice (FIG. 28C); for expression of GFAP in CTX: db/db mice (FIG. 28D); for expression of Iba-1 in HPF: db/db mice (FIG. 28E); for expression of Iba-1 in CTX: db/db mice (FIG. 28F)
From the text: (§1) In this study, 4-5 week old diabetic db/db mice were put onto a diet containing probucol 0.1% (w/w) or HA-1 0.2% (w/w) for either 10 or 24 weeks, till the age of 14 or 28 weeks, respectively. Passive avoidance test was used to assess short-term memory. Subsequently, the mice were sacrificed to obtain plasma and brain tissue samples for further analyses.
GFAP is a marker of astrocyte activation, which may confer anti-inflammatory effect.
Iba-1 expression indicates microglial activation, which is a surrogate marker of neuroinflammation.

[2] = system: Rats subjected to sub-concussion (SC); assay: Beam walk test, brain injury (sub-concussion) study (Experimental Example 3); assay type: in vivo
From the text: (§2) Repeated sub-concussive head impacts are reported to impair psychomotor function. Rats were subjected to sham procedure, sub-concussion (SC) with control diet (AlN93M), SC with probucol, SC with aged garlic extract (AGE), or SC with HA-1 for 12 weeks.
(§3) Both rotarod and beam walk tests assess neuromotor function. On beam walk, the higher the slips show the more impairment. On rotarod, the lower the latency indicates the more impairment.

diabetic db/db mice [3] = assay: Plasma amyloid-β (Aβ40, Aβ42, oligomers, Aβ42/40 ratio) in diabetic db/db mice; assay type: in vivo
From the text: as §1, with “analyses. […]” for “analyses.”

[4] = system: Rats subjected to sub-concussion (SC); assay: Rotarod test, brain injury (sub-concussion) study (Experimental Example 3); assay type: in vivo; conditions: at 12 weeks (FIG. 14)
From the text: as §2, §3

OC-1 cells = assay: Seahorse bioenergetics experiment (oxygen consumption rate) after cisplatin; assay type: cell-based
Protocol: Mitochondrial function was analysed by measuring oxygen consumption rate (OCR) using real-time Seahorse Flux Analyser XF 96 (Seahorse Bioscience, USA) with our well-established method (Kovacevic, Bozica, et al. “Novel hydrogel comprising non-ionic copolymer with various concentrations of pharmacologically active bile acids for cellular injectable gel.” Colloids and Surfaces B: Biointerfaces (2022): 113014). Briefly, the first injection was with media without glucose, with subsequent ATP synthase inhibitor oligomycin and FCCP (carbonyl cyanide-p-trifluoromethoxy phenylhydrazone) and the final injection was complex […] inhibitors Rotenone+antimycin A 77. The result was automatically generated and analysed by the wave software. The OC-1 cells were pre-treated with cisplatin at three different concentrations (20, 30 and 40 μM) for 24 or 48 hours to induce cytotoxicity prior to the seahorse bioenergetics assays.

diabetic db/db mice [5] = assay: Passive Avoidance Test in diabetic db/db mice (Experimental Example 5); assay type: in vivo; conditions: administered from 5 weeks of age, tested at 14 weeks
Protocol: (§4) Cognitive function in diabetic db/db mice was tested with Passive Avoidance and Novel Object Recognition tests. For both tests, the higher the value, the better the memory.
(§5) The mice were administered with either probucol, HA-1 or apoCIII antisense from 5 weeks of age, and cognitive performance was tested at 14 weeks of age.

diabetic db/db mice [6] = assay: Novel Object Recognition Test in diabetic db/db mice (Experimental Example 5); assay type: in vivo; conditions: at 14 weeks of age
Protocol: as §4, §5

[7] = system: rat model of repeated sub-concussion; assay: Beamwalk test, rat model of repeated sub-concussion (Experimental Example 6); assay type: in vivo, Female PVG rats; conditions: rats, 12-week repeated sub-concussion, 2 cm beam; probucol 0.1% w/w, HA-1 0.2% w/w in diet (FIG. 20B)
From the text: (§6) Female PVG rats aged 5-7 weeks were used. Under complete anaesthesia with isoflurane, a 25 g weight was dropped onto lambda of the skull from a 1 m height. This was repeated consecutively for 10 times per procedure. The procedure was repeated 3 times per week (i.e., Monday, Wednesday, Friday) for the duration of 12 weeks. Sham group rats received the same procedure without the weight drops. The probucol treatment group received probucol which was supplemented into the diet at 0.1% w/w. The HA-1 treatment group received HA-1 also in the diet at 0.2% w/w for the entire duration of the study.
After the completion of 12-week sub-concussion procedures, neuromotor function was tested with established rotarod and beamwalk tests. On beamwalk, the higher the slips show, the more impairment. On rotarod, the lower the latency indicates the more impairment.

[8] = system: rat model of repeated sub-concussion; assay: Blood-brain barrier integrity (IgG extravasation), rat model of repeated sub-concussion; assay type: in vivo, Female PVG rats; conditions: rats, 12-week repeated sub-concussion
From the text: as §6
The rats were then sacrificed to obtain brain tissue for further analyses.
The increase of IgG extravasation in SC rats indicates disruption of the BBB, allowing blood-borne IgG to leak into the brain.

[9] = system: Amniotic membrane mesenchymal stem cells (AM-MSCs); assay: Cytotoxicity study by MTT cell viability assay; assay type: cell-based, human; conditions: 10-30 μM, 24 hours
Protocol: (§7) Amniotic membrane mesenchymal stem cells (AM-MSCs) were incubated with different concentrations (10, 15, 20, 25 and 30 uM, and DMSO control) of (A) probucol, (B) SPQ, (C) HA-1, and (D) DMSO for 24 hours. D1=DMSO control for 10 μM, D2=DMSO control for 20 μM (p<0.05; *p<0.05, **p<0.001, ***p<0.0001, ns=non-significant, n=3).
as §7, with “HA-1 and,” for “HA-1, and”

[10] = sub-concussion, 1, 2 and 3 cm beam, at 12 weeks
[11] = sub-concussion, 2 cm beam, after 6 weeks
[12] = Experimental Example 1 (FIG. 1)
[13] = Experimental Example 2 (FIG. 8)

CC(=O)O[C@@H]1CC[C@@]2(C)[C@H](CC[C@@H]3[C@@H]2CC[C@]2(C)[C@@H]([C@H](C)CCC(=O)Oc4c(C(C)(C)C)cc(SC(C)(C)Sc5cc(C(C)(C)C)c(O)c(C(C)(C)C)c5)cc4C(C)(C)C)CC[C@@H]32)C1 [HA-1, 2,6-di-tert-butyl-4-((2-((3,5-di-tert-butyl-4-hydroxyphenyl)thio)propan-2-yl)thio)phenyl (4R)-4-[(3R,5R,8R,9S,10S,13R,14S,17R)-3-acetoxy-10,13-dimethyl-2,3,4,5,6,7,8,9,11,12,14,15,16,17-tetradecahydro-1H-cyclopenta[a]phenanthren-17-yl]pentanoate]
expression of 8dOHG in HPF (diabetic db/db mice [1]): better efficacy particularly in HPF | expression of 8dOHG in CTX (diabetic db/db mice [1]): attenuated | expression of GFAP in HPF (diabetic db/db mice [1]): significant recovery | expression of GFAP in CTX (diabetic db/db mice [1]): ameliorated similarly | expression of Iba-1 in HPF (diabetic db/db mice [1]): substantially reduced the expression of Iba-1 | expression of Iba-1 in CTX (diabetic db/db mice [1]): substantially reduced the expression of Iba-1 | number of slips in beam walk test [2, 10]: did not show significant preventative effects | number of slips in beam walk test [2, 11]: significant reduction in slips | Aβ42/40 ratio (diabetic db/db mice [3]; 14 weeks of age): remarkably reduced | plasma Aβ40 (diabetic db/db mice [3]; 14 weeks of age): did not change plasma Aβ40 levels | plasma Aβ42 (diabetic db/db mice [3]; 14 weeks of age): remarkably attenuated | plasma concentrations of Aβ oligomers (diabetic db/db mice [3]; 14 weeks of age): significantly reduced | Aβ42/40 ratio (diabetic db/db mice [3]; 28 weeks of age): remarkably reduced | plasma Aβ40 (diabetic db/db mice [3]; 28 weeks of age): increased plasma Aβ40 levels | plasma Aβ42 (diabetic db/db mice [3]; 28 weeks of age): significantly reduced | plasma concentrations of Aβ oligomers (diabetic db/db mice [3]; 28 weeks of age): significantly reduced | rotarod latency (average) [4]: significantly increased the latency | oxygen consumption rate (OCR) (OC-1 cells; OC-1 cells after 24 hours exposure to cisplatin (20, 30 and 40 μM)): significant and profound otoprotective effects | oxygen consumption rate (OCR) (OC-1 cells; OC-1 cells after 48 hours exposure to cisplatin (20, 30 and 40 μM)): significantly reverse the cytotoxic effects of cisplatin | Passive Avoidance Test latency (short-term memory) (diabetic db/db mice [5]): completely restore the memory; also recorded: equivalent latency to Neg control and probucol group mice | Novel Object Recognition Test preference index (diabetic db/db mice [6]): no significant effects | foot slips in beamwalk test [7]: completely normalised | IgG extravasation in cortex (CTX) [8]: more effective than probucol in attenuating BBB disruption | IgG extravasation in hippocampal formation (HPF) [8]: more effective than probucol in attenuating BBB disruption

CC1(C)SC2(C=C(C(C)(C)C)C(=O)C(C(C)(C)C)=C2)C2(C=C(C(C)(C)C)C(=O)C(C(C)(C)C)=C2)S1 [SPQ, 2,4,9,11-tetrakis(1,1-dimethylethyl)-14,14-dimethyl-13,15-dithiadispiro[5.0.5.3]pentadeca-1,4,8,11-tetraene-3,10-dione]
cytotoxicity by MTT cell viability assay [9, 12]: not toxic to the cells | cytotoxicity by MTT cell viability assay [9, 13]: not toxic to the cells

CC(C)(Sc1cc(C(C)(C)C)c(O)c(C(C)(C)C)c1)Sc1cc(C(C)(C)C)c(O)c(C(C)(C)C)c1 [probucol, 2,6-ditert-butyl-4-[2-(3,5-ditert-butyl-4-hydroxyphenyl)sulfanylpropan-2-ylsulfanyl]phenol]
expression of 8dOHG in HPF (diabetic db/db mice [1]): attenuated | expression of 8dOHG in CTX (diabetic db/db mice [1]): attenuated | expression of GFAP in HPF (diabetic db/db mice [1]): no benefits | expression of GFAP in CTX (diabetic db/db mice [1]): ameliorated similarly | expression of Iba-1 in HPF (diabetic db/db mice [1]): no beneficial effects | expression of Iba-1 in CTX (diabetic db/db mice [1]): no beneficial effects | number of slips in beam walk test [2, 10]: did not show significant preventative effects | number of slips in beam walk test [2, 11]: did not indicate any beneficial effects | plasma Aβ40 (diabetic db/db mice [3]; 14 weeks of age): did not change plasma Aβ40 levels | plasma Aβ42 (diabetic db/db mice [3]; 14 weeks of age): no beneficial effect | plasma concentrations of Aβ oligomers (diabetic db/db mice [3]; 14 weeks of age): not observed | plasma concentrations of Aβ oligomers (diabetic db/db mice [3]; 28 weeks of age): not observed | Passive Avoidance Test latency (short-term memory) (diabetic db/db mice [5]): completely prevented the memory loss | Novel Object Recognition Test preference index (diabetic db/db mice [6]): no significant effects | cytotoxicity by MTT cell viability assay [9, 12]: not toxic to the cells | cytotoxicity by MTT cell viability assay [9, 13]: not toxic to the cells | foot slips in beamwalk test [7]: modestly attenuated | IgG extravasation in cortex (CTX) [8]: some reduction in the CTX IgG extravasation | IgG extravasation in hippocampal formation (HPF) [8]: no protection against BBB disruption in HPF

— patent US20240374739A1, “BILE ACID CONJUGATE” (Curtin University, priority 2021, published 2024)
